Measurements published in ChEMBL document CHEMBL5724558, “Image-based profiling of drug vulnerabilities in CRC organoids” (2024).
Where “and” joins values, the source holds several entries; their conditions need not be identical. Equal values may be shown once.

Tests used:
Assay type in all cases: functional, Homo sapiens
Design in all cases: dose or concentration left out as unconfirmed
Colon cancer organoid [1] = test: Image-based profiling of donated chemical probes and chemogenomic kinase set in O09 CRC organoid. Image analysis is performed on the sum area metric, and the data were normalized to the DMSO control. After imaging the organoid viability is measured using the OneGloEX Luciferase Assay System. The normalized viability data and sum area are reported.
Colon cancer organoid [2] = test: Image-based profiling of donated chemical probes and chemogenomic kinase set in O21 CRC organoid. Image analysis is performed on the sum area metric, and the data were normalized to the DMSO control. After imaging the organoid viability is measured using the OneGloEX Luciferase Assay System. The normalized viability data and sum area are reported.
Colon cancer organoid [3] = test: Image-based profiling of donated chemical probes and chemogenomic kinase set in O06 CRC organoid. Image analysis is performed on the sum area metric, and the data were normalized to the DMSO control. After imaging the organoid viability is measured using the OneGloEX Luciferase Assay System. The normalized viability data and sum area are reported.

| Compound | Cell Viability (Colon cancer organoid [1]; Replication number 1) | Cell Viability (Colon cancer organoid [1]; Replication number 2) | Cell Viability (Colon cancer organoid [2]; Replication number 1) | Cell Viability (Colon cancer organoid [2]; Replication number 2) | Cell Viability (Colon cancer organoid [3]; Replication number 1) | Cell Viability (Colon cancer organoid [3]; Replication number 2) |
| --- | --- | --- | --- | --- | --- | --- |
| Cc1ccc(-c2ccc3c(ccc4sc5c(c43)NC[C@@H](C)NC5=O)n2)cn1 | 114.172% and 105.969% | 99.6709% and 79.9055% | 108.383% and 98.1185% | 106.246% and 104.786% | 131.751% and 124.635% | 132.52% and 124.216% |
| Cc1cc(CN)cc(C)c1-c1ncn(C)c1-c1cncn1C | 189.71% and 98.9954% | 198.722% and 106.905% | 118.759% and 94.0562% | 98.6287% and 80.0119% | 108.725% and 89.8792% | 171.9% and 107.541% |
| Cc1cc2c(-c3ccco3)cnc(N[C@H]3CCN(C)C[C@@H]3C(=O)NC3CCCCC3)c2[nH]c1=O [GSK791] | 46.4952% and 92.4722% | 100.727% and 114.988% | 103.348% and 100.946% | 100.095% and 111.149% | 106.466% and 102.024% | 100.388% and 101.634% |
| Clc1cc2c(NC3CCCC3)nnc(-c3ccncc3)c2cc1Cl | 139.675% and 109.428% | 148.163% and 121.159% | 113.128% and 118.158% | 77.3442% and 110.621% | 62.2011% and 99.302% | 123.043% and 92.9634% |
| FC(F)c1nc2ccccc2n1-c1nc(N2CCOCC2)nc(N2CCOCC2)n1 [ZSTK-474] | 70.4686% and 75.7987% | 41.1971% and 64.5183% | 72.4296% and 85.8537% | 82.8986% and 74.2713% | 51.8719% and 106.162% | 61.9887% and 87.8149% |
| Cn1cc(Cl)c2c(Oc3c(F)cc(Nc4cc(Cl)nc(N)n4)cc3F)ccnc21 [BAY-4900] | 73.6043% and 111.604% | 79.5869% and 90.6027% | 120.472% and 95.4893% | 100.602% and 97.8926% | 133.628% and 127.773% | 114.004% and 114.608% |
| Cc1c(Nc2ccc(S(=O)(=O)N3CCN(C)CC3)cc2F)nc2ccc(Nc3cnn(C4CC4)c3)cn2c1=O | 89.3145% and 89.49% | 245.21% and 122.015% | 116.907% and 92.8805% | 82.2867% and 96.1217% | 183.611% and 128.295% | 165.181% and 157.488% |
| CCCCN(CCCC)C(=O)CN1C[C@@H](c2cc(OC)c3c(c2)OCO3)[C@H](C(=O)O)[C@H]1CC(C)(C)CCC [A-545] | 137.08% and 104.407% | 151.031% and 114.494% | 100.23% and 87.9043% | 101.691% and 84.1837% | 97.8309% and 86.6511% | 75.1695% and 72.7273% |
| CC(=O)Nc1c(C(C)=O)c(=O)n(C)c2nc(-c3ccc(Cl)cc3Cl)c(-c3ccc(Cl)cc3)cc12 [NAPHTHYRIDINONE] | 117.091% and 130.21% | 64.3844% and 79.7371% | 94.8536% and 101.294% | 91.9114% and 85.7143% | 123.545% and 117.564% | 103.77% and 94.7587% |
| COc1ccccc1-c1cc(N2CCN(C(=O)OC(C)(C)C)CC2)c(N)nn1 | 86.2709% and 84.3895% | 173.59% and 117.453% | 94.3574% and 85.8263% | 106.056% and 125.119% | 179.264% and 129.02% | 154.723% and 113.755% |
| CCC(=O)N[C@@H]1CC[C@H](C(=O)N(C)c2ccc(-c3nc4ccccc4o3)cc2)C1 [BI 99990] | 148.115% and 99.6283% | 106.898% and 85.8708% | 98.1271% and 82.0828% | 97.1544% and 80.6122% | 114.692% and 101.874% | 112.935% and 105.893% |
| CN(C)[C@@H]1CCN(c2cc(-c3ccccc3)nc3ccnn23)C1 [(R)-ZINC-3573] | 69.8572% and 93.5976% | 61.7883% and 100.515% | 105.256% and 112.95% | 102.245% and 84.1264% | 99.7285% and 119.514% | 116.173% and 112.206% |
| CC(C)(O)c1cncc(-c2nc3ccc(F)cc3n2C2CC2)c1 [MSD-CYP11B2] | 85.3446% and 107.103% | 121.971% and 103.489% | 108.022% and 122.772% | 100.134% and 120.326% | 79.0545% and 113.441% | 106.294% and 130.706% |
| COc1cc(C#N)ccc1S(=O)(=O)Nc1ccc2c(c1)cc(C)c(=O)n2C | 120.569% and 113.833% | 161.546% and 95.5021% | 105.091% and 139.321% | 90.295% and 90.2148% | 109.695% and 120.805% | 114.995% and 99.8938% |
| O=C(N1CCS(=O)(=O)CC1)N1C[C@H](c2ccc(OC(F)(F)F)cc2)C[C@H](c2nc(C3CC3)no2)C1 [BAY-386] | 89.9865% and 101.779% | 61.3549% and 77.1084% | 113.622% and 103.04% | 77.465% and 87.7551% | 89.0523% and 95.7845% | 109.266% and 112.289% |
| C[C@@H](c1cccc(CN)c1)n1cc(Cl)cc(C(N)=O)c1=N.Cl | 102.95% and 110.479% | 109.454% and 89.4132% | 113.852% and 117.315% | 85.2053% and 83.6166% | 106.874% and 116.842% | 95.2274% and 108.361% |
| CC1(C)C(N)=Nc2cc(OCCCCN3Cc4ccc(OCc5cn(CC(=O)N6CCC(CCN7CCCC7)CC6)nn5)cc4C3)c(OCC3CC3)cc21 | 129.867% and 99.2272% | 184.968% and 121.159% | 75.5552% and 109.928% | 77.1471% and 105.251% | 120.738% and 74.8993% | 69.8334% and 85.077% |
| Cn1cnc2c(F)c(Nc3ccc(Br)cc3Cl)c(C(=O)NOCCO)cc21 [SELUMETINIB] | 59.0124% and 83.6445% | 134.387% and 96.018% | 30.9074% and 27.5425% | 36.6071% and 40.747% | 17.7792% and 31.8399% | 27.9489% and 57.8656% |
| CNC(=O)c1cc(C(=O)N[C@H]2[C@@H]3COC[C@@H]32)cc2c1O[C@H](CF)[C@H]2c1ccccc1 [GSK973] | 33.6063% and 74.8406% | 64.0142% and 82.8707% | 110.582% and 117.861% | 99.9706% and 95.8532% | 85.8672% and 112.47% | 108.347% and 115.089% |
| Cc1cc2c(-c3ccco3)cnc(N[C@@H]3CCN(C)C[C@H]3C(=O)NC3CCCCC3)c2[nH]c1=O [GSK789] | 34.6914% and 67.3378% | 49.9263% and 76.5266% | 106.004% and 111.859% | 101.857% and 104.521% | 45.8732% and 77.9757% | 46.7874% and 82.8928% |
| O=C(Nc1ccc(-c2ccnc(Nc3ccc(N4CCOCC4)cc3)n2)cc1)[C@@H]1CCCN1 | 74.06% and 64.3291% | 67.524% and 79.6356% | 122.386% and 130.453% | 118.022% and 143.361% | 113.887% and 133.092% | 82.4971% and 82.4679% |
